Results reported in ChEMBL document CHEMBL2346588, “Design, synthesis, and biological activity of diaryl ether inhibitors of Toxoplasma gondii enoyl reductase” (Bioorg Med Chem Lett, 2013).
In brackets after ≈: the same amount, converted by molar mass. Activity calls are given as the source filed them. The calls are words filed in the database; no cut-off is given here.

Tests used:
[1] = target: T1, Enoyl-acyl carrier reductase (Toxoplasma gondii) (UniProt Q6UCJ9); assay: Inhibition of Toxoplasma gondii enoyl reductase assessed as conversion of trans-2-acyl-ACP to acyl-ACP at 1 uM
T1 sequence (whole entry): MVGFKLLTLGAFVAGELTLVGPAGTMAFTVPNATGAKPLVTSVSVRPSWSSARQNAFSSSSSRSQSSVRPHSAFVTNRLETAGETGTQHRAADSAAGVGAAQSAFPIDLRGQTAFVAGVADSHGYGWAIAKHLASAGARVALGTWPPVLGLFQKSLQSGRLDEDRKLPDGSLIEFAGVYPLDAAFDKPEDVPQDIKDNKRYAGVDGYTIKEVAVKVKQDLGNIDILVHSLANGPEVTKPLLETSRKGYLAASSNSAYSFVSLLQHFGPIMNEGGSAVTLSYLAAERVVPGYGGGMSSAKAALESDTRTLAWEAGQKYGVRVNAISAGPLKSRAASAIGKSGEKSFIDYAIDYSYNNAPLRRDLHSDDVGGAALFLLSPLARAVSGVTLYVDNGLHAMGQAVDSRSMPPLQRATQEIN

HFF = assay: Cytotoxicity against HFF assessed as inhibition of [3H]-thymidine incorporation after 24 hrs by […] assay; format: cell-based; details: human
Toxoplasma gondii [2] = assay: Antiparasitic activity against Toxoplasma gondii type 1 RH expressing YFP infected in HFF assessed as inhibition of [3H]-uracil incorporation after 72 hrs by liquid scintillation counting; format: functional
Plasmodium falciparum [3] = assay: Antimalarial activity against chloroquine-resistant Plasmodium falciparum TM91C235 after 24 hrs by SYBR Green I based fluorescence assay; format: functional, organism-based; details: TM91C235, 24 h
Plasmodium falciparum [4] = assay: Antimalarial activity against Plasmodium falciparum D6 after 24 hrs by SYBR Green I based fluorescence assay; format: functional, organism-based; details: D6, 24 h
Mus musculus = assay: Toxicity in Toxoplasma gondii infected BALB/c mouse assessed mortality at 75 mg/kg, ip qd for 5 days measured 7 day after infection; format: organism-based; parameters: dose 75 mg/kg, route intraperitoneal; details: in vivo, 168 h
[5] = target: T2, Enoyl-acyl carrier reductase (Toxoplasma gondii, UniProt Q6UCJ9); assay: Inhibition of Toxoplasma gondii enoyl reductase assessed as conversion of trans-2-acyl-ACP to acyl-ACP
T2 sequence (Q6UCJ9 whole entry): T1 sequence (whole entry)

Toxoplasma gondii [6] = assay: Antiparasitic activity against Toxoplasma gondii infected in BALB/c mouse assessed as reduction of parasite burden at 50 mg/kg, ip qd for 5 days; format: functional, organism-based; parameters: dose 50 mg/kg
Toxoplasma gondii [7] = assay: Antiparasitic activity against Toxoplasma gondii infected in BALB/c mouse assessed as reduction of parasite burden at 25 mg/kg, ip qd for 5 days; format: functional, organism-based; parameters: dose 25 mg/kg

## CC(C)(C)OC(=O)N1CCN(C(=O)c2ccc(Oc3ccc(Cl)cc3O)s2)CC1
[1]
  inhibition: 76%
HFF
  INH: > 10 µM
Toxoplasma gondii [2]
  MIC50: > 10 µM

## Cn1cc(C(=O)Nc2ccc(Cl)cc2O)c(C(F)(F)F)n1
[1]
  inhibition: 27%
HFF
  INH: > 10 µM
Toxoplasma gondii [2]
  MIC50: > 10 µM

## O=C(O)c1ccc(Oc2ccc(Cl)cc2O)o1
[1]
  inhibition: 79%
HFF
  INH: > 10 µM
Toxoplasma gondii [2]
  MIC50: > 10 µM

## O=C(O)c1ccc(Oc2ccc(Cl)cc2O)s1
[1]
  inhibition: 48%
HFF
  INH: > 10 µM
Toxoplasma gondii [2]
  MIC50: 10 µM (≈ 2.71 µg/mL)

## CCNC(=O)c1ccc(Oc2ccc(Cl)cc2O)s1
[1]
  inhibition: 75%
HFF
  INH: 10 µM

## CC(=O)N1CCN(c2ccc(Oc3ccc(Cl)cc3O)cc2)CC1
Plasmodium falciparum [3]
  IC50: > 10 µg/mL
Plasmodium falciparum [4]
  IC50: > 10 µg/mL
Mus musculus
  Activity: Toxic
[5]
  IC50: 225 nM
Toxoplasma gondii [6]
  Activity: inactive
[1]
  inhibition: 81%
HFF
  INH: > 10 µM
Toxoplasma gondii [2]
  MIC50: 1.5 µM (≈ 0.52 µg/mL)

## Oc1cc(Cl)ccc1Oc1ccc(N2CCOCC2)cc1
[1]
  inhibition: 74%
HFF
  INH: > 10 µM
Toxoplasma gondii [2]
  MIC50: > 10 µM

## CC(=O)N1CCN(Cc2ccc(Oc3ccc(Cl)cc3O)s2)CC1
[5]
  IC50: 965 nM
[1]
  inhibition: 73%
HFF
  INH: > 10 µM
Toxoplasma gondii [2]
  MIC50: 5 µM (≈ 1.83 µg/mL)

## O=C(c1ccc(Oc2ccc(Cl)cc2O)s1)N1CCNCC1
[1]
  inhibition: 60%
HFF
  INH: > 10 µM
Toxoplasma gondii [2]
  MIC50: > 10 µM

## CN1CCN(c2ccc(Oc3ccc(Cl)cc3O)cc2)CC1
[1]
  inhibition: 25%
HFF
  INH: > 10 µM

## Oc1cc(Cl)ccc1Oc1ccc2ccccc2c1
[5]
  IC50: 41 nM
[1]
  inhibition: 91%
HFF
  INH: > 10 µM
Toxoplasma gondii [2]
  MIC50: 10 µM (≈ 2.71 µg/mL)

## CNC(=O)c1ccc(Oc2ccc(Cl)cc2O)o1
[1]
  inhibition: 46%
HFF
  INH: > 10 µM
Toxoplasma gondii [2]
  MIC50: > 10 µM

## O=S(=O)(c1ccc(Oc2ccc(Cl)cc2O)cc1)N1CCCC1
[1]
  inhibition: 78%
HFF
  INH: > 10 µM
Toxoplasma gondii [2]
  MIC50: 10 µM (≈ 3.54 µg/mL)

## Cc1cc(NC(=O)c2ccc(Oc3ccc(Cl)cc3O)o2)no1
[5]
  IC50: 58 nM
[1]
  inhibition: 90%
HFF
  INH: > 10 µM
Toxoplasma gondii [2]
  MIC50: 10 µM (≈ 3.35 µg/mL)

## Oc1cc(Cl)ccc1Oc1ccc(C(F)(F)F)cc1Cl
[5]
  IC50: 30 nM
[1]
  inhibition: 95%
HFF
  INH: > 10 µM
Toxoplasma gondii [2]
  MIC50: 4 µM (≈ 1.29 µg/mL)

## Oc1cc(Cl)ccc1Oc1ccc2ncccc2c1
[5]
  IC50: 135 nM
[1]
  inhibition: 87%
HFF
  INH: > 10 µM
Toxoplasma gondii [2]
  MIC50: 7.5 µM (≈ 2.04 µg/mL)

## O=S(=O)(c1ccc(Oc2ccc(Cl)cc2O)cc1)N1CCCCC1
[1]
  inhibition: 81%
HFF
  INH: > 10 µM
Toxoplasma gondii [2]
  MIC50: 10 µM (≈ 3.68 µg/mL)

## CN1CCN(Cc2ccc(Oc3ccc(Cl)cc3O)cc2)CC1
[1]
  inhibition: 32%
HFF
  INH: > 10 µM
Toxoplasma gondii [2]
  MIC50: > 10 µM

## Oc1cc(Cl)ccc1Oc1ccc(Cl)cc1Cl [TRICLOSAN]
HFF
  INH: > 10 µM
Toxoplasma gondii [2]
  MIC50: 5 µM (≈ 1.45 µg/mL)
Toxoplasma gondii [7]
  Activity: Active

## CC(=O)N1CCN(C(=O)c2ccc(Oc3ccc(Cl)cc3O)o2)CC1
[1]
  inhibition: 45%
HFF
  INH: > 10 µM
Toxoplasma gondii [2]
  MIC50: > 10 µM
